# In US8927046B2, “Resveratrol compositions” (DSM IP Assets B.V., priority 2009, dated 2015):
# Legend:
# Assay type in all cases: physicochemical
# [1] = Deposits or visible recrystallization in beverages
# Excerpt: Preparation: • Dissolve potassium sorbate in a small quantity of water. • Add citric acid solution, dry vitamin E 15% CC and resveratrol CWS. • Stir until all ingredients have dissolved. • Add sugar, stir again and add water to 1 liter. • Fill into appropriate packages and pasteurize or pasteurize and fill aseptically.
# Preparation: • Dissolve potassium sorbate in a part of water under stirring. • Add resveratrol CWS under further stirring. • Add sugar syrup, ascorbic acid, citric acid solution, water-soluble flavour and beta-carotene solution, one after the other, under stirring (no high-speed mixer). • Dilute the bottling syrup to one liter of beverage. • Fill into appropriate packages and pasteurize or pasteurize and fill aseptically.
# [2] = Dissolution time in water at 80° C.; conditions: at 80° C. in water, to reach a concentration of 120 mg/liter
# Experimental: (§1) At 80° C. in water, resveratrol crystals need more than 15 minutes to dissolve completely to reach a concentration of 120 mg/liter. […] After the milling, the resveratrol CWS is dissolved within 1 minute at 80° C. 1 minute at 80° C. are standard conditions for the pasteurization step for the production of the beverages. This dissolution of the resveratrol during this pasteurization step ensures a good physical stability of the resveratrol in the beverages.
# [3] = trans-resveratrol suspended in mineral drink water (Arkina) after pasteurization at 80° C. for 1 minute; HPLC concentration and deposit observation; conditions: for Concentration after 18 hours / Concentration after 5 days / Concentration initial: HPLC
# Experimental: as §1
# Different concentration of Resvida™ (resveratrol cryst.) not milled were dispersed in mineral drink water (Arkina) and pasteurized at 80° C. for 1 minute. The following results with trans-resveratrol suspended in water (analysis done with HPLC) have been obtained:
# This powder was dissolved in mineral drink water (Arkina) and pasteurized at 80° C. for 1 minute. The following results with trans-resveratrol suspended in water (analysis done with HPLC) have been obtained: […]
# [4] = theoretical concentration 81.5 mg/liter, mineral drink water, pasteurized 80° C. 1 minute
# [5] = theoretical concentration 98.5 mg/liter, mineral drink water, pasteurized 80° C. 1 minute
# [6] = theoretical concentration 119 mg/liter, mineral drink water, pasteurized 80° C. 1 minute
# [7] = theoretical concentration 160 mg/liter, mineral drink water, pasteurized 80° C. 1 minute
# [8] = theoretical concentration 205.5 mg/liter, mineral drink water, pasteurized 80° C. 1 minute
structure (smiles),measurement,setting,value
"Oc1ccc(C=Cc2cc(O)cc(O)c2)cc1 [Resvida, 3,5,4′-trihydroxystilbene]",deposit when used instead of the CWS form,[1]; near water beverage of Example 9,a deposit remained which could not be dissolved
same,deposit when used instead of the CWS form,[1]; soft drink of Example 10,a deposit remains which can not be dissolved
same,time to dissolve completely,[2],more than 15 minutes
same,physical stability of resveratrol dissolved at 80° C.,"[3]; at room temperature, after dissolution in water at 80° C.",crystallize and make deposits within a couple of days
same,Observation,[3]; [4],Deposits +
same,Concentration after 18 hours,[3]; [4],62.0 µg/mL
same,Concentration after 5 days,[3]; [4],65.0 µg/mL
same,Concentration initial,[3]; [4],71.8 µg/mL
same,Concentration after 18 hours,[3]; [5],67.0 µg/mL
same,Concentration after 5 days,[3]; [5],47.1 µg/mL
same,Concentration initial,[3]; [5],87.4 µg/mL
same,Concentration after 18 hours,[3]; [6],67.7 µg/mL
same,Concentration after 5 days,[3]; [6],55.5 µg/mL
same,Concentration initial,[3]; [6],102.6 µg/mL
same,Concentration after 18 hours,[3]; [7],67.5 µg/mL
same,Concentration after 5 days,[3]; [7],46.4 µg/mL
same,Concentration initial,[3]; [7],123.7 µg/mL
same,Concentration after 18 hours,[3]; [8],61.3 µg/mL
same,Concentration after 5 days,[3]; [8],40.5 µg/mL
same,Concentration initial,[3]; [8],142.0 µg/mL
